Source: US9957263B2, “Bromodomain inhibitors” (AbbVie Inc., priority 2013, dated 2018)

Columns and labels:
BRD4 (BDII_E352-M457) = BRD4 (BDII_E352-M457) (Homo sapiens (Human), UniProt O60885); test: TR-FRET bromodomain binding assay, BRD4 second bromodomain; settings: His-tagged BD2, Alexa647-labeled probe 30 nM
Procedure, shortened: (§1)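 Read-out: TR-FRET ratio after 1 h at room temperature, normalized to controls and fitted for IC50, then converted to Ki. Reaction held 8 nM His-tagged domain, 1 nM Eu-anti-His antibody, Alexa647 probe (BDI 100 nM; BDII 30 nM) and test compound in 2% DMSO.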

[1] = tested on: LPS induced IL-6 (Interleukin-6) production; test: LPS (lipopolysaccharide) induced IL-6 production mouse assay; assay type: in vivo; settings: CD-1 female mice, oral administration one hour before LPS 2.5 mg/kg intraperitoneal, serum 2 hours after LPS; p value less than 0.05
Description: Example 2 was assayed for its ability to inhibit LPS (lipopolysaccharide) induced IL-6 (Interleukin-6) production in mice. CD-1 female mice (Charles River Laboratories, 5 per group) received an intraperitoneal challenge of lipopolysaccharide (2.5 mg/kg, L2630 E. coli 0111:B4) one hour after oral administration of compound or compound vehicle. Mice were euthanized 2 hours after lipopolysaccharide injection, blood was removed by cardiac puncture, and then the serum harvested from the blood samples was frozen at −80 OC. On the day of the assay the serum samples were brought to room temperature and then diluted 1:20 in phosphate-buffered saline containing 2% bovine serum albumin. Interleukin-6 measurements were performed using a cytokine assay from Meso Scale Discovery (Gaithersburg, Md.) for mouse serum analysis according to the manufacturer's protocol and read on a SECTOR Imager 6000 (Meso Scale Discovery, Gaithersburg, Md.) instrument. Statistical analysis was performed using Prism software (version 5.0) incorporating Dunnett's one way ANOVA. The IL-6 mean and standard deviation of the group of vehicle treated animals were compared with the IL-6 mean and standard deviation of the group treated with drug. A p value <0.05 means that there is less than a 5% probability that the mean values in the two groups are equal.

BRD4 (BDI_K57-E168) = BRD4 (BDI_K57-E168) (Homo sapiens (Human), UniProt O60885); test: TR-FRET bromodomain binding assay, BRD4 first bromodomain; settings: His-tagged BD1, Alexa647-labeled probe 100 nM
Procedure, shortened: as §1

- Ki (BRD4 (BDII_E352-M457)): 4 nM
- Ki (BRD4 (BDI_K57-E168)): 57 nM
Compound: CCS(=O)(=O)Nc1cc(-c2cn(C)c(=O)c3[nH]ccc23)c(Oc2ccc(F)cc2F)cc1CN(C)C [Example 2, N-[4-(2,4-difluorophenoxy)-2-[(dimethylamino)methyl]-5-(6-methyl-7-oxo-6,7-dihydro-1H-pyrrolo[2,3-c]pyridin-4-yl)phenyl]ethanesulfonamide]
- inhibition of LPS induced IL-6 production [1]: 45%
